Assay results: US20130303507A1 (Novartis AG, priority 2011, published 2013)

Target: Cdk9/cyclinT1 (Homo sapiens, UniProt P50750)
Assay: Cdk9/cyclinT1 IMAP protocol (fluorescence polarization)
Settings: IC-50, CDK9; lower limit of assay 0.0005 micromolar

Chain of Cdk9/cyclinT1 (P50750 whole entry): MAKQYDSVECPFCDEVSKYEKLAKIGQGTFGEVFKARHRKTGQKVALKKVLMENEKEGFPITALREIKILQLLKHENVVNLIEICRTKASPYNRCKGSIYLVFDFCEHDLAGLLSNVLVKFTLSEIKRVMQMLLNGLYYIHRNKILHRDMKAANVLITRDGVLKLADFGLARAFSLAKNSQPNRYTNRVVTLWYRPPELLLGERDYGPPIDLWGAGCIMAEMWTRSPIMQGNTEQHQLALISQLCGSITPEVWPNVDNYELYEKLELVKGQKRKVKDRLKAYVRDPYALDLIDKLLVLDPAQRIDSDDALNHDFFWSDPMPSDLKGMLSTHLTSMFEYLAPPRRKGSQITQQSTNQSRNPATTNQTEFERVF
Chain of Cdk9/cyclinT1 (O60563 whole entry partner): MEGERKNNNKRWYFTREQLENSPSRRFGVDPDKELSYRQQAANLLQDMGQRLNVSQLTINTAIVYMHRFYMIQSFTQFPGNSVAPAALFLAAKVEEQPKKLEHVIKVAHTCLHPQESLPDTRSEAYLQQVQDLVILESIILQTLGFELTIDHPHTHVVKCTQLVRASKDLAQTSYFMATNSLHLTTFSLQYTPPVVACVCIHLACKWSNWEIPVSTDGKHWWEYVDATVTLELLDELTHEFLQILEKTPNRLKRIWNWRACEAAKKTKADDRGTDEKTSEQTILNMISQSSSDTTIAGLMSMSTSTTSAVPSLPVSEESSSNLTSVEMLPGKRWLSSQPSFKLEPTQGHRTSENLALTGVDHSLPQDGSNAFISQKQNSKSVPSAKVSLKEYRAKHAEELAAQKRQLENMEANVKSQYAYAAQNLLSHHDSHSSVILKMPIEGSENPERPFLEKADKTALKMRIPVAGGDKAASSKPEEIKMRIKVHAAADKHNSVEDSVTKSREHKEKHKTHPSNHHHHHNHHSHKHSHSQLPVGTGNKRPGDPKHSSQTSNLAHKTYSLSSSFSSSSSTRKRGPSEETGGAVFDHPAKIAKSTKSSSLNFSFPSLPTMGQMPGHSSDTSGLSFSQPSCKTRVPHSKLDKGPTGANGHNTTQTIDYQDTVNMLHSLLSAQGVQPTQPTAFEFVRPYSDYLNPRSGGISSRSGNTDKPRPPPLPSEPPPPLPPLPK

SMILES | IC50 [nM]
CO[C@H]1C[C@@H](Nc2cc(-c3cccc(NCC4(C#N)CCOCC4)n3)c(Cl)cn2)CC[C@@H]1N [Compound 439, 4-(((2′-(((1S,3S,4S)-4-amino-3-methoxycyclohexyl)amino)-5′-chloro-[2,4′-bipyridin]-6-yl)amino)methyl)tetrahydro-2H-pyran-4-carbonitrile] | 10
COC[C@H](C)N[C@H]1CC[C@H](Nc2cc(-c3ccc(F)c(NC[C@H]4CCOC(C)(C)C4)n3)c(Cl)cn2)CC1 [Compound 463, 5′-chloro-N6-(((S)-2,2-dimethyltetrahydro-2H-pyran-4-yl)methyl)-5-fluoro-N2′-(trans-4-(((S)-1-methoxypropan-2-yl)amino)cyclohexyl)-[2,4′-bipyridine]-2′,6-diamine] | 1.9
C[C@@H]1COCCN1[C@H]1CC[C@H](Nc2cc(-c3cccc(NCC4(C#N)CCOCC4)n3)c(Cl)cn2)CC1 [Compound 503, 4-(((5′-chloro-2′-((trans-4-((R)-3-methylmorpholino)cyclohexyl)amino)-[2,4′-bipyridin]-6-yl)amino)methyl)tetrahydro-2H-pyran-4-carbonitrile] | 2.6
CCOC(=O)C(C)(C)NC[C@H]1CC[C@H](Nc2cc(-c3cccc(NCC4(C#N)CCOCC4)n3)c(Cl)cn2)CC1 [Compound 425, ethyl 2-(((trans-4-((5′-chloro-6-(((4-cyanotetrahydro-2H-pyran-4-yl)methyl)amino)-[2,4′-bipyridin]-2′-yl)amino)cyclohexyl)methyl)amino)-2-methylpropanoate] | 1.1
CCOC(=O)C(C)(C)N[C@H]1CC[C@H](Nc2cc(-c3cccc(NCC4(C#N)CCOCC4)n3)c(Cl)cn2)CC1 [Compound 452, ethyl 2-((trans-4-((5′-chloro-6-(((4-cyanotetrahydro-2H-pyran-4-yl)methyl)amino)-[2,4′-bipyridin]-2′-yl)amino)cyclohexyl)amino)-2-methylpropanoate] | 0.7
COC[C@H](C)N[C@H]1CC[C@H](Nc2cc(-c3ccc(F)c(NC[C@@H]4CCOC(C)(C)C4)n3)c(Cl)cn2)CC1 [Compound 462, 5′-chloro-N6-(((R)-2,2-dimethyltetrahydro-2H-pyran-4-yl)methyl)-5-fluoro-N2′-(trans-4-(((S)-1-methoxypropan-2-yl)amino)cyclohexyl)-[2,4′-bipyridine]-2′,6-diamine] | 1.2
COC[C@]1(O)CC[C@H](Nc2cc(-c3cccc(NCC4(C#N)CCOCC4)n3)c(Cl)cn2)CC1 [Compound 449, 4-(((5′-chloro-2′-((trans-4-hydroxy-4-(methoxymethyl)cyclohexyl)amino)-[2,4′-bipyridin]-6-yl)amino)methyl)tetrahydro-2H-pyran-4-carbonitrile] | 5.5
C[C@@H]1CN([C@H]2CC[C@@H](Nc3cc(-c4cccc(NCC5(C#N)CCOCC5)n4)c(Cl)cn3)CC2)C[C@H](C)O1 [Compound 427, 4-(((5′-chloro-2′-((cis-4-((2S,6R)-2,6-dimethylmorpholino)cyclohexyl)amino)-[2,4′-bipyridin]-6-yl)amino)methyl)tetrahydro-2H-pyran-4-carbonitrile] | 8.2
N#CC1(CNc2cccc(-c3cc(NC4CCOCC4)ncc3Cl)n2)CCOCC1 [Compound 443, 4-(((5′-chloro-2′-((tetrahydro-2H-pyran-4-yl)amino)-[2,4′-bipyridin]-6-yl)amino)methyl)tetrahydro-2H-pyran-4-carbonitrile] | 1.7
CC1(C)CN([C@H]2CC[C@H](Nc3cc(-c4cccc(NCC5(C#N)CCOCC5)n4)c(Cl)cn3)CC2)CCO1 [Compound 416, 4-(((5′-chloro-2′-((trans-4-(2,2-dimethylmorpholino)cyclohexyl)amino)-[2,4′-bipyridin]-6-yl)amino)methyl)tetrahydro-2H-pyran-4-carbonitrile] | 21
N#CC1(CNc2cccc(-c3cc(N[C@@H]4CCCc5ccccc54)ncc3Cl)n2)CCOCC1 [Compound 500, (R)-4-(((5′-chloro-2′-((1,2,3,4-tetrahydronaphthalen-1-yl)amino)-[2,4′-bipyridin]-6-yl)amino)methyl)tetrahydro-2H-pyran-4-carbonitrile] | 20
CN(C)C(=O)CN(CC(=O)N(C)C)[C@H]1CC[C@H](Nc2cc(-c3cccc(NCC4(C#N)CCOCC4)n3)c(Cl)cn2)CC1 [Compound 421, 2,2′-((trans-4-((5′-chloro-6-(((4-cyanotetrahydro-2H-pyran-4-yl)methyl)amino)-[2,4′-bipyridin]-2′-yl)amino)cyclohexyl)azanediyl) bis(N,N-dimethylacetamide)] | 2.7
CC1(CN[C@H]2CC[C@H](Nc3cc(-c4cccc(NCC5(C#N)CCOCC5)n4)c(Cl)cn3)CC2)COC1 [Compound 430, 4-(((5′-chloro-2′-((trans-4-(((3-methyloxetan-3-yl)methyl)amino)cyclohexyl)amino)-[2,4′-bipyridin]-6-yl)amino)methyl)tetrahydro-2H-pyran-4-carbonitrile] | 1
N#CC1(CNc2cccc(-c3cc(N[C@H]4CC[C@H](N5CCCOCC5)CC4)ncc3Cl)n2)CCOCC1 [Compound 428, 4-(((2′-((trans-4-(1,4-oxazepan-4-yl)cyclohexyl)amino)-5′-chloro-[2,4′-bipyridin]-6-yl)amino)methyl)tetrahydro-2H-pyran-4-carbonitrile] | 0.6
N#CC1(CNc2cccc(-c3cc(N[C@H]4CC[C@H](N5CCNC(=O)C5)CC4)ncc3Cl)n2)CCOCC1 [Compound 417] | 1.3
N#CC1(CNc2cccc(-c3cc(NC4CNC4)ncc3Cl)n2)CCOCC1 [Example 401] | 81

Now those with a lower IC50, led by results:

IC50 [nM] | SMILES
< 0.5 | N#CC1(CNc2cccc(-c3cc(N[C@@H]4CC[C@@H](NCC5CCCO5)C4)ncc3Cl)n2)CCOCC1 (stereo partly drawn) [Compound 410, 4-(((5′-chloro-2′-(((1R,3R)-3-(((tetrahydrofuran-2-yl)methyl)amino)cyclopentyl)amino)-[2,4′-bypyridin]-6-yl)amino)methyl)tetrahydro-2H-pyran-4-carbonitrile]
≤ 0.5 | COC[C@H](C)N[C@H]1CC[C@H](Nc2cc(-c3cccc(NCC4(C#N)CCOCC4)n3)c(Cl)cn2)CC1 [Compound 459, 4-(((5′-chloro-2′-((trans-4-(((S)-1-methoxypropan-2-yl)amino)cyclohexyl)amino)-[2,4′-bipyridin]-6-yl)amino)methyl)tetrahydro-2H-pyran-4-carbonitrile]
< 0.5 | N#CC1(CNc2cccc(-c3cc(N[C@H]4CC[C@H](CNS(=O)(=O)c5ccccc5)CC4)ncc3Cl)n2)CCOCC1 [Compound 496, N-((trans-4-((5′-chloro-6-(((4-cyanotetrahydro-2H-pyran-4-yl)methyl)amino)-[2,4′-bipyridin]-2′-yl)amino)cyclohexyl)methyl) benzenesulfonamide]
< 0.5 | COCCN[C@H]1CC[C@H](Nc2cc(-c3ccc(F)c(NCC4(C)CCOCC4)n3)c(Cl)cn2)CC1 [Compound 481, 5′-chloro-5-fluoro-N2′-(trans-4-((2-methoxyethyl)amino)cyclohexyl)-N6-((4-methyltetrahydro-2H-pyran-4-yl)methyl)-[2,4′-bipyridine]-2′,6-diamine]
< 0.5 | NC(=O)C1(CNc2cccc(-c3cc(N[C@H]4CC[C@H](N)CC4)ncc3F)n2)CC1 [Compound 487, 1-(((2′-((trans-4-aminocyclohexyl)amino)-5′-fluoro-[2,4′-bipyridin]-6-yl)amino)methyl)cyclopropane-carboxamide]
< 0.5 | COCCN(CCOC)[C@H]1CC[C@H](Nc2cc(-c3cccc(NCC4(C#N)CCOCC4)n3)c(Cl)cn2)CC1 [Compound 446, 4-(((2′-((trans-4-(bis(2-methoxyethyl)amino)cyclohexyl)amino)-5′-chloro-[2,4′-bipyridin]-6-yl)amino)methyl)tetrahydro-2H-pyran-4-carbonitrile]
< 0.5 | N#CC1(CNc2cccc(-c3cc(N[C@H]4CC[C@H](NC[C@@H]5CCCO5)CC4)ncc3F)n2)CCOCC1 [Compound 483, 4-(((5′-fluoro-2′-((trans-4-((((S)-tetrahydrofuran-2-yl)methyl)amino)cyclohexyl)amino)-[2,4′-bipyridin]-6-yl)amino)methyl)tetrahydro-2H-pyran-4-carbonitrile]
< 0.5 | COC[C@@H](C)N[C@H]1CC[C@H](Nc2cc(-c3cccc(NCC4(C#N)CC4)n3)c(F)cn2)CC1 [Compound 480, 1-(((5′-fluoro-2′-((trans-4-(((R)-1-methoxypropan-2-yl)amino)cyclohexyl)amino)-[2,4′-bipyridin]-6-yl)amino)methyl)cyclopropane-carbonitrile]
< 0.5 | N#CC1(CNc2cccc(-c3cc(N[C@H]4CC[C@@H](O)C4)ncc3Cl)n2)CCOCC1 (relative stereo) [Example 404]
< 0.5 | COCCN[C@H]1CC[C@H](Nc2cc(-c3cccc(NCC4(C#N)CCOCC4)n3)c(F)cn2)CC1 [Compound 474, 4-(((5′-fluoro-2′-((trans-4-((2-methoxyethyl)amino)cyclohexyl)amino)-[2,4′-bipyridin]-6-yl)amino)methyl)tetrahydro-2H-pyran-4-carbonitrile]
< 0.5 | N#CC1(CNc2cccc(-c3cc(N[C@H]4CC[C@H](N[C@@H]5CCOC5)CC4)ncc3Cl)n2)CCOCC1 [Compound 470, 4-(((5′-chloro-2′-((trans-4-(((R)-tetrahydrofuran-3-yl)amino)cyclohexyl)amino)-[2,4′-bipyridin]-6-yl)amino)methyl)tetrahydro-2H-pyran-4-carbonitrile]
< 0.5 | N#CC1(CNc2cccc(-c3cc(N[C@H]4CC[C@H](CN)CC4)ncc3Cl)n2)CCOCC1 [Compound 493, 4-(((2′-((trans-4-(aminomethyl)cyclohexyl)amino)-5′-chloro-[2,4′-bipyridin]-6-yl)amino)methyl)tetrahydro-2H-pyran-4-carbonitrile]
≤ 0.5 | N#CC1(CNc2cccc(-c3cc(N[C@H]4CC[C@H](N5CCCC5)CC4)ncc3Cl)n2)CCOCC1 [Compound 434, 4-(((5′-chloro-2′-((trans-4-(pyrrolidin-1-yl)cydohexyl)amino)-[2,4′-bipyridin]-6-yl)amino)methyl)tetrahydro-2H-pyran-4-carbonitrile]
